Test results as given in PMC3288537 (ACS Chemical Biology, 2011).

Molecular target: T1, HePTP (Homo sapiens, UniProt P35236)
T1 sequence (P35236 1-360): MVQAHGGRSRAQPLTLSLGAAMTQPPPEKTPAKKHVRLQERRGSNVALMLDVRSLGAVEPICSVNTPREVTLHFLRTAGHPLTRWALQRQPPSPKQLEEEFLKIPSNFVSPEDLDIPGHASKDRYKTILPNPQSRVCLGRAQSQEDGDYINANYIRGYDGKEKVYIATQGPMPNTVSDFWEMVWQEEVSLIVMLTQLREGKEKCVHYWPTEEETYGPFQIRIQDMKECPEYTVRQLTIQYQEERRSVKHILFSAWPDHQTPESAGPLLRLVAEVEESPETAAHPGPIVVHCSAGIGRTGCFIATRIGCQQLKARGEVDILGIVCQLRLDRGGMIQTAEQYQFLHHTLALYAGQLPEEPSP
Assay: Dose-response OMFP phosphatase assay, HePTP
Assay type: biochemical
Conditions: OMFP substrate

SMILES: O=C(O)c1ccccc1 [benzoic acid, reference compound]
- activity against HePTP (in words): did not inhibit
